The compounds below were run against T1, 5-HT2A receptor (Homo sapiens, UniProt P28223) (assay: cell-based). Details: not given.
T1 sequence (P28223 whole entry): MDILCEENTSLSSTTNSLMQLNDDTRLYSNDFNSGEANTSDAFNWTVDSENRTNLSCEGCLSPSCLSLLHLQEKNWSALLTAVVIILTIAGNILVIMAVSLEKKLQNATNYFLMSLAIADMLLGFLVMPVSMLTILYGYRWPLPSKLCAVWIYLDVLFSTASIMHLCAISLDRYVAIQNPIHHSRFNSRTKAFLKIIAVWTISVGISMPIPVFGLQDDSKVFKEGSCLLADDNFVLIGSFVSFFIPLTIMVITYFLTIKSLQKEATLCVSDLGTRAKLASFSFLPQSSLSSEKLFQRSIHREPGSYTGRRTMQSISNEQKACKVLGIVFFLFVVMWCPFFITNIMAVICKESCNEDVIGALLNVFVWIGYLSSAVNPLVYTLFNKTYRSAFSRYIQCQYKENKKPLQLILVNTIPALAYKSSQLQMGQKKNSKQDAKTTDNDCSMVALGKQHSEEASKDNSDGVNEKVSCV
Format: cell-based
In the case of `COc1cc(CC(C)N)c(OC)cc1C` (single isomer, unassigned; (-)) [DOM, (-)2,5-dimethoxy-4-methylamphetamine, reference compound], the “% maximum stimulation, 5-HT2A stimulation of IP-1 formation” value is reported as 39.9 ± 5.4 (3) 94.6 ± 4.1%. For `CCN(CC)C(=O)[C@@H]1C=C2c3cccc4[nH]cc(c34)C[C@H]2N(C)C1` [LSD, (+)lysergic acid diethylamide, reference compound], the “% maximum stimulation, 5-HT2A stimulation of IP-1 formation” value was 0.706 ± 0.065 (3) 64.5 ± 6.3%.

Same assay, conditions: read-out: EC50, 5-HT2A stimulation of IP-1 formation
Compound `COc1cc(CC(C)N)c(OC)cc1C` (single isomer, unassigned; (-)) [DOM, (-)2,5-dimethoxy-4-methylamphetamine, reference compound] has an EC50 of 0.0399 µM.

These compounds were tested against T2, hNET (Homo sapiens, UniProt P23975) (assay: Release of preloaded [^3H]NE from HEK-hNET cells). Details: read-out: Drug-induced release of [^3H]neurotransmitter EC50, hNET [^3H]NE; mean ± sem; HEK-hNET.
T2 sequence (P23975 whole entry): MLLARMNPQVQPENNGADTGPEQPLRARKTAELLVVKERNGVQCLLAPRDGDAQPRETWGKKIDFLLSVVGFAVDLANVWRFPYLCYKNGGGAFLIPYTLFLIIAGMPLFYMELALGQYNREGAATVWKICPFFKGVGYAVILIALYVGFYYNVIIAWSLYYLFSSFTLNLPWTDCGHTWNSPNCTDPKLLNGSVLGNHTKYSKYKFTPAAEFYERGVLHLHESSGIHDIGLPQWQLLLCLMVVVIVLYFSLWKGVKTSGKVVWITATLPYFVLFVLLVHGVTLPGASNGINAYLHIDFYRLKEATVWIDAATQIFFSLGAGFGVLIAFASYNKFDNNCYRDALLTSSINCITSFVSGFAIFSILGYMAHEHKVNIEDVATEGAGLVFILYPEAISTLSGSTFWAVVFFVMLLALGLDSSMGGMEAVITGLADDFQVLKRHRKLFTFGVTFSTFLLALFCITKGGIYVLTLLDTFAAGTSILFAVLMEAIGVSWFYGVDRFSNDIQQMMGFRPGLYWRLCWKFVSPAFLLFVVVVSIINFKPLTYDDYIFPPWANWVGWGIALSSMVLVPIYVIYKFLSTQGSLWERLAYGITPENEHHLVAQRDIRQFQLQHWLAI
Format: cell-based
`COc1cc(CC(C)N)c(OC)cc1C` (single isomer, unassigned; (-)) [DOM, (-)2,5-dimethoxy-4-methylamphetamine, reference compound] showed an EC50 greater than 42 µM. `CCN(CC)C(=O)[C@@H]1C=C2c3cccc4[nH]cc(c34)C[C@H]2N(C)C1` [LSD, (+)lysergic acid diethylamide, reference compound] was tested, and the EC50 was greater than 91 µM.

Same assay, conditions: relative to maximum release induced by METH (0.3–1 μM)
`COc1cc(CC(C)N)c(OC)cc1C` (single isomer, unassigned; (-)) [DOM, (-)2,5-dimethoxy-4-methylamphetamine, reference compound] was tested, and the “% maximum release, hNET [^3H]NE” value was 25.5 ± 2.0%. For `CCN(CC)C(=O)[C@@H]1C=C2c3cccc4[nH]cc(c34)C[C@H]2N(C)C1` [LSD, (+)lysergic acid diethylamide, reference compound], the “% maximum release, hNET [^3H]NE” value was 35.7 ± 4.2%.

These compounds were tested against T3, hDAT (Homo sapiens, UniProt Q01959) (assay: Inhibition of [^125I]RTI-55 binding to hDAT). Details: read-out: Inhibition of [^125I]RTI-55 binding Ki, hDAT; mean ± sem; HEK-hDAT.
T3 sequence (Q01959 whole entry): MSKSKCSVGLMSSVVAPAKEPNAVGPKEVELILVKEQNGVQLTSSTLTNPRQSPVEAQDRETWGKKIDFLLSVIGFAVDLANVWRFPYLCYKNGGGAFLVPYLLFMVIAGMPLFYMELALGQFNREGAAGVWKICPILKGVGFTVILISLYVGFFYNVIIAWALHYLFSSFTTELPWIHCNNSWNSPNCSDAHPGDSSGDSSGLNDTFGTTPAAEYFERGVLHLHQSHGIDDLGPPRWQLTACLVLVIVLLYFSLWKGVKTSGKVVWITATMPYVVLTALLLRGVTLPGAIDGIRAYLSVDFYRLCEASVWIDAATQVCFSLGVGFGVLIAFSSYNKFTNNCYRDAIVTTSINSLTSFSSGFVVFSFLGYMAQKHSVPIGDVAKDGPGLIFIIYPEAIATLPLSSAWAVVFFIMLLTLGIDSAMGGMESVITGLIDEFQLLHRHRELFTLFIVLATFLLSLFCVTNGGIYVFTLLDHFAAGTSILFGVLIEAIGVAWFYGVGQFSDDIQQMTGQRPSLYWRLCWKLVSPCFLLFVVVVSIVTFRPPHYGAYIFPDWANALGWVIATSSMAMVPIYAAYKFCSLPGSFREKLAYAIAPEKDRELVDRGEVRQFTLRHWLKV
`COc1cc(CC(C)N)c(OC)cc1C` (single isomer, unassigned; (-)) [DOM, (-)2,5-dimethoxy-4-methylamphetamine, reference compound] gave a Ki greater than 100 µM. For `CCN(CC)C(=O)[C@@H]1C=C2c3cccc4[nH]cc(c34)C[C@H]2N(C)C1` [LSD, (+)lysergic acid diethylamide, reference compound], the Ki was greater than 100 µM.

What follows are compounds tested against T2, hNET (assay: biochemical). Details: read-out: Inhibition of [^125I]RTI-55 binding Ki, hNET; mean ± sem; HEK-hNET.
Format: binding
Work on `COc1cc(CC(C)N)c(OC)cc1C` (single isomer, unassigned; (-)) [DOM, (-)2,5-dimethoxy-4-methylamphetamine, reference compound] yielded a Ki greater than 100 µM. For `CCN(CC)C(=O)[C@@H]1C=C2c3cccc4[nH]cc(c34)C[C@H]2N(C)C1` [LSD, (+)lysergic acid diethylamide, reference compound], the Ki was 76.9 ± 8.5 µM.

Each compound was assayed against 5-HT2B receptor (Homo sapiens, UniProt P41595) (assay: 5-HT2B receptor inositol monophosphate). Details: normalized to the maximal stimulation by 5-HT.
Sequence of 5-HT2B receptor (P41595 whole entry): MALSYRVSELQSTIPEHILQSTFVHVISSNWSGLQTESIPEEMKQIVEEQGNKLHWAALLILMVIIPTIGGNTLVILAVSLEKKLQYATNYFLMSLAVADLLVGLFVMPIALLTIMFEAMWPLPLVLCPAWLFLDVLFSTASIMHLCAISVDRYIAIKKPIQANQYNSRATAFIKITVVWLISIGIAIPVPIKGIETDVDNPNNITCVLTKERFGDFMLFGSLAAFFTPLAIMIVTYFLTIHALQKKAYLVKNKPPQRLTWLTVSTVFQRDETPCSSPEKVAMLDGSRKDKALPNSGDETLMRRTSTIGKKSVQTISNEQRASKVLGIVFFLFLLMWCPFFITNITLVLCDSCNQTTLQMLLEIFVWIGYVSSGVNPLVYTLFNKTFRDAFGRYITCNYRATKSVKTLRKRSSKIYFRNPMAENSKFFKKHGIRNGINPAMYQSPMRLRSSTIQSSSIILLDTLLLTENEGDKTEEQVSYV
Format: cell-based
With `COc1cc(CC(C)N)c(OC)cc1C` (single isomer, unassigned; (-)) [DOM, (-)2,5-dimethoxy-4-methylamphetamine, reference compound] the “% maximum stimulation, 5-HT2B stimulation of IP-1 formation” value was 96.2 ± 3.2%. In the case of `CCN(CC)C(=O)[C@@H]1C=C2c3cccc4[nH]cc(c34)C[C@H]2N(C)C1` [LSD, (+)lysergic acid diethylamide, reference compound], the “% maximum stimulation, 5-HT2B stimulation of IP-1 formation” value is reported as 23.3 ± 4.9%.

Same assay, conditions: read-out: EC50, 5-HT2B stimulation of IP-1 formation; mean ± sem
`COc1cc(CC(C)N)c(OC)cc1C` (single isomer, unassigned; (-)) [DOM, (-)2,5-dimethoxy-4-methylamphetamine, reference compound] showed an EC50 of 0.145 ± 0.047 µM.

The compounds below were run against T4, human 5-HT1A receptor (Homo sapiens, UniProt P08908) (assay: 5-HT1A receptor [^3H]8-OH-DPAT radioligand binding). Details: read-out: Inhibition of radioligand binding Ki, 5-HT1A [^3H]8OH-DPAT; mean ± sem; recombinant human 5-HT1A in HEK cells; agonist radioligand.
T4 sequence (P08908 1-422): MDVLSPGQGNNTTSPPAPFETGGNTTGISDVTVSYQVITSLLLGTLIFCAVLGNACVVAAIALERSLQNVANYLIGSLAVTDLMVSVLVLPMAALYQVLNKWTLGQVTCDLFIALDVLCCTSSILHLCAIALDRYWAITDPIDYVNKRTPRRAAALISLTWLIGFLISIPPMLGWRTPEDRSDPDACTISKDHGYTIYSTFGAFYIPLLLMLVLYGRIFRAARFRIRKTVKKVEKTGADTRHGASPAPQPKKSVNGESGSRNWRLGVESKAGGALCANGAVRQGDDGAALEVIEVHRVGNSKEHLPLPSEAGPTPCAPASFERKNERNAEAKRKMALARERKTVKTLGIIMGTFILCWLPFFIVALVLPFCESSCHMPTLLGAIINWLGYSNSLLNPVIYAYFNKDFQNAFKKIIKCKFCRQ
Work on `COc1cc(CC(C)N)c(OC)cc1C` (single isomer, unassigned; (-)) [DOM, (-)2,5-dimethoxy-4-methylamphetamine, reference compound] yielded a Ki of 3.66 ± 0.47 µM.

The compounds below were run against T4, human 5-HT1A receptor (assay: 5-HT1A receptor [^35S]GTPγS binding stimulation). Details: normalized to the maximal stimulation by 5-HT.
Format: biochemical
In the case of `COc1cc(CC(C)N)c(OC)cc1C` (single isomer, unassigned; (-)) [DOM, (-)2,5-dimethoxy-4-methylamphetamine, reference compound], the “% maximum stimulation, 5-HT1A stimulation of [^35S]GTPγS binding” value is reported as 74 ± 25%.

Same assay, conditions: read-out: EC50, 5-HT1A stimulation of [^35S]GTPγS binding; mean ± sem
Work on `COc1cc(CC(C)N)c(OC)cc1C` (single isomer, unassigned; (-)) [DOM, (-)2,5-dimethoxy-4-methylamphetamine, reference compound] yielded an EC50 of 12.8 ± 4.7 µM.

What follows are compounds tested against T3, hDAT (assay: Release of preloaded [^3H]DA from HEK-hDAT cells). Details: read-out: Drug-induced release of [^3H]neurotransmitter EC50, hDAT [^3H]DA; mean ± sem; HEK-hDAT.
Format: cell-based
Compound `COc1cc(CC(C)N)c(OC)cc1C` (single isomer, unassigned; (-)) [DOM, (-)2,5-dimethoxy-4-methylamphetamine, reference compound] has an EC50 greater than 100 µM. With `CCN(CC)C(=O)[C@@H]1C=C2c3cccc4[nH]cc(c34)C[C@H]2N(C)C1` [LSD, (+)lysergic acid diethylamide, reference compound] the EC50 was greater than 54 µM.

Same assay, conditions: relative to maximum release induced by METH (1–10 μM)
For `COc1cc(CC(C)N)c(OC)cc1C` (single isomer, unassigned; (-)) [DOM, (-)2,5-dimethoxy-4-methylamphetamine, reference compound], the “% maximum release, hDAT [^3H]DA” value was −0.20 ± 0.16%. For `CCN(CC)C(=O)[C@@H]1C=C2c3cccc4[nH]cc(c34)C[C@H]2N(C)C1` [LSD, (+)lysergic acid diethylamide, reference compound], the “% maximum release, hDAT [^3H]DA” value was 7.4 ± 4.7%.

The compounds below were run against T5, hSERT (Homo sapiens, UniProt P31645) (assay: Release of preloaded [^3H]5-HT from HEK-hSERT cells). Details: read-out: Drug-induced release of [^3H]neurotransmitter EC50, hSERT [^3H]5-HT; mean ± sem; HEK-hSERT.
T5 sequence (P31645 whole entry): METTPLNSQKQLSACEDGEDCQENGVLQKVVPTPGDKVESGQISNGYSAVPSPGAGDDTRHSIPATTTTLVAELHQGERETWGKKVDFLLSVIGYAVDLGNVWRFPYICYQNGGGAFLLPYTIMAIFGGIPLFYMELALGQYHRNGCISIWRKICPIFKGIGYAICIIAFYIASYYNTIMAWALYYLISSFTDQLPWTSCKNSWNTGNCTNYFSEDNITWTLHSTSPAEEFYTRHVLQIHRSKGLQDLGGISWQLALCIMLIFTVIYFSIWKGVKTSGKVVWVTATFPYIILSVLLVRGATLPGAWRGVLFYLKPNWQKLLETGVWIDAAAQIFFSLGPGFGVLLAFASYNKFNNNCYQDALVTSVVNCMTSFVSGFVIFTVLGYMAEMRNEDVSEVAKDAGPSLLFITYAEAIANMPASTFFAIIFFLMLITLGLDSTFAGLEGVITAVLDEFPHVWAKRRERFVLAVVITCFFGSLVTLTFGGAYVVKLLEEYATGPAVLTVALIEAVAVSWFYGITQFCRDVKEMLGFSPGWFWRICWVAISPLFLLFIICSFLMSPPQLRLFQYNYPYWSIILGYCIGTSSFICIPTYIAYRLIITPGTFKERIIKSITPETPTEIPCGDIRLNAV
Format: cell-based
With `COc1cc(CC(C)N)c(OC)cc1C` (single isomer, unassigned; (-)) [DOM, (-)2,5-dimethoxy-4-methylamphetamine, reference compound] the EC50 was greater than 100 µM. With `CCN(CC)C(=O)[C@@H]1C=C2c3cccc4[nH]cc(c34)C[C@H]2N(C)C1` [LSD, (+)lysergic acid diethylamide, reference compound] the EC50 was greater than 100 µM.

Same assay, conditions: relative to maximum release induced by METH (0.3–1 mM)
With `COc1cc(CC(C)N)c(OC)cc1C` (single isomer, unassigned; (-)) [DOM, (-)2,5-dimethoxy-4-methylamphetamine, reference compound] the “% maximum release, hSERT [^3H]5-HT” value was 2.9 ± 3.4%. For `CCN(CC)C(=O)[C@@H]1C=C2c3cccc4[nH]cc(c34)C[C@H]2N(C)C1` [LSD, (+)lysergic acid diethylamide, reference compound], the “% maximum release, hSERT [^3H]5-HT” value was −0.59 ± 0.55%.

What follows are compounds tested against T1, 5-HT2A receptor (assay: biochemical). Details: read-out: Inhibition of radioligand binding Ki, 5-HT2A [^125I]DOI.
Format: binding
`COc1cc(CC(C)N)c(OC)cc1C` (single isomer, unassigned; (-)) [DOM, (-)2,5-dimethoxy-4-methylamphetamine, reference compound] was tested, and the Ki was 0.0183 µM.

What follows are compounds tested against T5, hSERT (assay: Inhibition of [^125I]RTI-55 binding to hSERT). Details: read-out: Inhibition of [^125I]RTI-55 binding Ki, hSERT; mean ± sem; HEK-hSERT.
Compound `COc1cc(CC(C)N)c(OC)cc1C` (single isomer, unassigned; (-)) [DOM, (-)2,5-dimethoxy-4-methylamphetamine, reference compound] has a Ki greater than 100 µM. Work on `CCN(CC)C(=O)[C@@H]1C=C2c3cccc4[nH]cc(c34)C[C@H]2N(C)C1` [LSD, (+)lysergic acid diethylamide, reference compound] yielded a Ki of 62.9 ± 5 µM.
